Values quoted from earlier work, collected in patent US6277963A, “Antibodies directed toward extracellular signal-related kinases” (Regeneron Pharmaceuticals, Inc., priority 1997, dated 2001).

Biological target: MAP2 kinase (partially purified enzyme) (Mus musculus, UniProt P63085)
Sequence (P63085 whole entry): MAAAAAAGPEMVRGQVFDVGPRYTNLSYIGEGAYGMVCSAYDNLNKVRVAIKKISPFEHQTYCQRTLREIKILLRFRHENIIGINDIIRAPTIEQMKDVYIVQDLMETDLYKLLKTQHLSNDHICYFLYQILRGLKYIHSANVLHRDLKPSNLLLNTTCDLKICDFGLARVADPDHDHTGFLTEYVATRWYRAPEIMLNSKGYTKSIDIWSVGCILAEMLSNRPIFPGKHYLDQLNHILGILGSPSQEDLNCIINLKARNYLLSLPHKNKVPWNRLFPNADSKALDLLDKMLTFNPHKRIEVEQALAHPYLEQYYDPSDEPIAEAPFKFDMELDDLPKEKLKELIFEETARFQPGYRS

SMILES | Km (read-out: Km for ATP) [µM] | utilization of GTP
Nc1ncnc2c1ncn2[C@@H]1O[C@H](COP(=O)(O)OP(=O)(O)OP(=O)(O)O)[C@@H](O)[C@H]1O [ATP] | 7 | –
Nc1nc2c(ncn2[C@@H]2O[C@H](COP(=O)(O)OP(=O)(O)OP(=O)(O)O)[C@@H](O)[C@H]2O)c(=O)[nH]1 [GTP] | – | did not appear to utilize GTP
